Assay results published in PubChem BioAssay AID2060889 (Molecular Pharmacology Branch, DTP, NCI, 2025).
Values joined by “and” are separate entries in the source; they are usually repeats but may differ in a detail not shown here. Equal values may be shown once.

Test system: LG0567-F671-PDC complex spheroids viability
Assay: Anticancer human tumor LG0567-F671-PDC patient-derived lung adenocarcinoma cell line growth inhibition [RAS]
Details: for viability, T/C: stronger effect = lower value; active = viability on the fitted dose curve at most 10% of control; inactive = the rest
Method in brief: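 Tumour cells grown as complex spheroids with HUVEC endothelial cells and mesenchymal stem cells, treated with RAS pathway inhibitor combinations. Each agent spans half-log steps from near clinical Cmax, or 10 microM where Cmax is unknown.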
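Note: spheroids exposed to compound for seven days before readout.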
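Throughout, for IC50: luminescence signal used as a proxy for viable cells.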

Cc1nc(N2CCC3(CC2)COC(C)C3N)c(CO)nc1Sc1ccnc(N)c1Cl (stereo unspecified)
inactive: viability, T/C (compound 0.0316 µM) 72.2% [middle of 4 runs] | viability, T/C (compound 0.1 µM) 48.2% [middle of 4 runs] | viability, T/C (compound 0.316 µM) 36.3% [middle of 4 runs] | viability, T/C (compound 1 µM) 28.1% [middle of 4 runs] | viability, T/C (compound 3.16 µM) 21.7% [middle of 4 runs] | viability, T/C (compound 10 µM) 19.9% [middle of 4 runs]
93.7 nM [middle of 4 runs]: IC50 (curve of compound)

CC(Nc1ccc2c(c1)OCCn1cc(N3C(=O)OCC3C(F)F)nc1-2)C(N)=O (stereo unspecified)
inactive: viability, T/C (compound 0.0316 µM) 79.5% [middle of 4 runs] | viability, T/C (compound 0.1 µM) 63.3% [middle of 4 runs] | viability, T/C (compound 0.316 µM) 52.5% [middle of 4 runs] | viability, T/C (compound 1 µM) 43.4% [middle of 4 runs] | viability, T/C (compound 3.16 µM) 33.8% (2×) and 32.1% and 37.8% | viability, T/C (compound 10 µM) 30.5% [middle of 4 runs]
386 nM [middle of 4 runs]: IC50 (curve of compound)

NC1c2ccccc2OC12CCN(c1cnc3c(N4CCCc5ncccc54)n[nH]c3n1)CC2 (stereo unspecified) + C=CC(=O)N1CCN(c2nc(OCC3CCCN3C)nc3c(F)c(-c4nc(N)cc(C)c4C(F)(F)F)c(Cl)cc23)C(C)C1
< 31.6 nM: IC50 (curve of first compound, second compound 0.00316 µM) | IC50 (curve of first compound, second compound 0.01 µM) | IC50 (curve of first compound, second compound 0.0316 µM) | IC50 (curve of first compound, second compound 0.1 µM) | IC50 (curve of first compound, second compound 0.316 µM) | IC50 (curve of first compound, second compound 1 µM)
active: viability, T/C (second compound 0.00316 µM, first compound 0.0316 µM) 6.27% | viability, T/C (second compound 0.00316 µM, first compound 0.1 µM) 4.36% | viability, T/C (second compound 0.00316 µM, first compound 0.316 µM) 3.09% | viability, T/C (second compound 0.00316 µM, first compound 1 µM) 2.99% | viability, T/C (second compound 0.00316 µM, first compound 3.16 µM) 2.79% | viability, T/C (second compound 0.00316 µM, first compound 10 µM) 3.28% | viability, T/C (second compound 0.01 µM, first compound 0.0316 µM) 5.37% | viability, T/C (second compound 0.01 µM, first compound 0.1 µM) 3.73% | viability, T/C (second compound 0.01 µM, first compound 0.316 µM) 2.99% | viability, T/C (second compound 0.01 µM, first compound 1 µM) 2.89% | viability, T/C (second compound 0.01 µM, first compound 3.16 µM) 2.44% | viability, T/C (second compound 0.01 µM, first compound 10 µM) 2.64% | viability, T/C (second compound 0.0316 µM, first compound 0.0316 µM) 4.86% | viability, T/C (second compound 0.0316 µM, first compound 0.1 µM) 3.54% | viability, T/C (second compound 0.0316 µM, first compound 0.316 µM) 3.04% | viability, T/C (second compound 0.0316 µM, first compound 1 µM) 3.15% | viability, T/C (second compound 0.0316 µM, first compound 3.16 µM) 2.61% | viability, T/C (second compound 0.0316 µM, first compound 10 µM) 3.04% | viability, T/C (second compound 0.1 µM, first compound 0.0316 µM) 5.91% | viability, T/C (second compound 0.1 µM, first compound 0.1 µM) 4.17% | viability, T/C (second compound 0.1 µM, first compound 0.316 µM) 2.81% | viability, T/C (second compound 0.1 µM, first compound 1 µM) 2.78% | viability, T/C (second compound 0.1 µM, first compound 3.16 µM) 3% | viability, T/C (second compound 0.1 µM, first compound 10 µM) 2.64% | viability, T/C (second compound 0.316 µM, first compound 0.0316 µM) 5.55% | viability, T/C (second compound 0.316 µM, first compound 0.1 µM) 3.15% | viability, T/C (second compound 0.316 µM, first compound 0.316 µM) 3.61% | viability, T/C (second compound 0.316 µM, first compound 1 µM) 3.03% | viability, T/C (second compound 0.316 µM, first compound 3.16 µM) 2.75% | viability, T/C (second compound 0.316 µM, first compound 10 µM) 2.78% | viability, T/C (second compound 1 µM, first compound 0.0316 µM) 5.5% | viability, T/C (second compound 1 µM, first compound 0.1 µM) 4.65% | viability, T/C (second compound 1 µM, first compound 0.316 µM) 3.58% | viability, T/C (second compound 1 µM, first compound 1 µM) 3.3% | viability, T/C (second compound 1 µM, first compound 3.16 µM) 3.79% | viability, T/C (second compound 1 µM, first compound 10 µM) 3.5%
